Results from paper PMC5108032, “Discovery of a Quinoline-4-carboxamide Derivative with a Novel Mechanism of Action, Multistage Antimalarial Activity, and Potent in Vivo Efficacy” (Journal of Medicinal Chemistry, 2016).
“And” between values parts separate entries of the source, which are not always exact repeats. Equal values may be shown once. Read-outs that look alike come from different tables or passages of the source. Marks after values point to notes of the source that are not given here.

Legend:
[1] = Intrinsic clearance (Cli) in mouse liver microsomes; assay type: in vitro ADME; conditions: mouse liver microsome
Text: (§1) inhibition at top, C= EC50, D= slope, x= inhibitor concentration and y= % inhibition. […]
(§2) reach 100% of inhibition, B was fixed to 100 only when at least 50% of inhibition was reached.
(§3) Plasmodium falciparum late stage (IV-V) gametocyte high content imaging assay Plasmodium falciparum NF54-pfs16-LUC-GFP stage IV-V Gametocytes were produced as described previously.5 Compounds were solubilized in DMSO and serially diluted in three concentrations per log standard curves in DM SO. One µl of compound was subsequently diluted in 25µl of water (4% DMSO) and 5µl transferred into the base of 384 well PerkinElmer CellCarrier plates. Forty-five µl of stage IV-V gametocytes (10%P in 0.1%H) were added to the imaging plates which were in turn sealed with a gas permeable membrane and incubated at 37°C, 5% CO 2, 5% O2, 90% N2 and 60% humidity […]
(§4) Post incubation, 5µl of MitoTracker® Red CM -H2Xros (MTR) solution (0.66ug/ml) was added to all wells and the plates incubated for a further 16hours. The assay plates were then imaged and the number of viable gametocytes determined for test compounds plus 0.4%DMSO and 5µM Puromycin.
(§5) (0.4%DMSO) control values. Percent inhibition was plotted against log compound concentration using a 4 parameter log dose, non-linear regression analysis, with sigmoidal dose response (variable slope) curve fit using Prizm 4.0. IC50 values were obtained from this curve fit. The compound testing was performed in duplicate point within two separate experiments.
(§6) Plasmodium berghei ookinete development assay
(§7) Assay was performed as previously reported.6 Briefly blood containing P. berghei CTRPp-GFP gametocytes was rapidly harvested from infected mice and introduced to test compounds pre-diluted in ookinete medium (to induce gamete formation and support ookinete development) in 96-well plates. Plates were incubated in the dark at 21°C for 22 hr before GFP fluorescence intensity measured in a plate reader. % inhibition of ookinete formation was calculated with reference to the fluorescence intensity values of a positive control (20 µM cycloheximide) and a solvent-only negative control (DMSO). All assays were performed in triplicate independent experiments and EC50 values calculated in Graphpad Prism.
(§8) The aqueous solubility of the test compounds was measured using laser nephelometry, as described previously.7 Compounds were subject to serial dilution from 10 mg/mL to 0.5 mg/mL in DMSO. An aliquot was then mixed with MilliQ water to obtain an aqueous dilution plate with a final concentration range of 100 – 5 μg/mL, with a final DMSO concentration of 1.0%. Triplicate aliquots were transferred to a flat bottomed polystyrene plate which was immediately read on the NEPHELOstar (BMG Lab Technologies). The amount of laser scatter caused by insoluble particulates (relative nephelometry units, RNU) was plotted against compound concentration using a segmental regression fit, with the point of inflection being quoted as the compounds aqueous solubility (μg/mL; […]
(§9) Intrinsic Clearance (Cli) experiments
(§10) The procedure was carried out as reported previously.7 Test compound (0.5 µM) was incubated with female CD1 mouse, male sprague-dawley rat or pooled human mixed gender liver microsomes (Xenotech LLC TM; 0.5 mg/mL 50 mM potassium phosphate buffer, pH 7.4) and the reaction initiated […]
by the addition of excess NADPH (8 mg/mL 50 mM potassium phosphate buffer, pH 7.4).
Immediately, at time zero, then at 3, 6, 9, 15 and 30 min an aliquot (50 μL) of the incubation mixture was removed and mixed with acetonitrile (100 μL) to stop the reaction. Internal standard was added to all samples, the samples centrifuged to sediment precipitated protein and the plates then sealed prior to UPLC-MS/MS analysis using a Quattro Premier XE (Waters Corporation, USA).
XLfit (IDBS, UK) was used to calculate the exponential decay and consequently the rate constant (k) from the ratio of peak area of test compound to internal standard at each timepoint. The rate of […]

[2] = Intrinsic clearance (Cli) in human liver microsomes; assay type: in vitro ADME; conditions: human liver microsome
Text: as §1, §2, §3, §4, §5, §6, §7, §8, §9, §10
(§11) by the addition of excess NADPH (8 mg/mL 50 mM potassium phosphate buffer, pH 7.4). […]

[3] = Intrinsic clearance (Cli) in rat liver microsomes; assay type: in vitro ADME; conditions: rat liver microsome
Text: as §1, §2, §3, §4, §5, §6, §7, §8, §9, §10, §11

P. berghei ANKA strain = assay: In vivo antimalarial efficacy in the P. berghei mouse model (Peter's test); set-up: species or system Plasmodium berghei in female NMRI mice; conditions: for inhibition in vivo at 1 mg/kg: Plasmodium berghei, po, 96 h, 4 × 1 mg/kg oral, read-out: activity (reduction of parasitemia); for inhibition in vivo at 1 mg/kg / cure: once daily; for cure: mice cured / mice in group
Procedure: Compound 41 was dosed as a bolus solution intravenously at 1 mg free base/kg (dose volume: 5 mL/kg; dose vehicle: 5% DMSO;saline) or by gavage orally as solution at 3 mg free base/kg (dose volume: 10 mL/kg; Dose vehicle: 0.5% w/v hydroxypropylmethylcellulose with 0.4% v/v Tween 80 and 0.5% v/v benzyl alcohol) to male Sprague Dawley rats (n=3/dose route). Blood samples were taken from each rat at 5, 15, 30 min, 1, 2, 4, 6, 8, 24 and 30 h post-dose, mixed with two volumes of distilled water and stored frozen until UPLC/MS/MS analysis.
Pharmacokinetic parameters were derived from the blood concentration time curve for each compound using PKsolutions software v 2.0 (Summit Research Services, USA).
In vivo antimalarial efficacy studies in P. berghei. (Swiss TPH)
In vivo efficacy was conducted as previously described10 with the modification that female NMRI mice (n = 3) were infected with a GFP-transfected P. berghei ANKA strain (donated by A. P. Waters and C. J. Janse, Leiden University, The Netherlands), and parasitaemia determined (96 h after infection) using standard flow cytometry techniques. Compounds 1, 25, 27, 30 and 49 were prepared in 10% DM SO, 40% PEG 400 and 50% water prior to administration orally, once daily for 4 days.
Compounds 40, 41, 43 and 44 were prepared in a non-solubilizing, standard suspension vehicle called HPMC (0.5% [wt/vol] hydroxypropylmethylcellulose, 0.5% [vol/vol] benzyl alcohol, 0.4% [vol/vol] Tween 80, and 0.9% [wt/vol] sodium chloride in water) prior to administration orally, once daily for 4 days. Blood samples were collected on day 4 (96 h after infection) in two volumes water. Animals […]
and then hourly up to 4 h after dosing each day. The animals were selected randomly for each group

[4] = Experimental pKa by potentiometric titration; assay type: physicochemical; conditions: value in parentheses, read-out: R^3 group pKa, experimental
Text: Table 4 SAR Study of the R^3 Substituent: Aromatic Groups | column: R^3 group pKa^a

[5] = set-up: method as in PMID 26085270; conditions: human liver microsome; cited from earlier work
[6] = set-up: method as in PMID 26085270; conditions: mouse liver microsome; cited from earlier work
[7] = set-up: method as in PMID 26085270; conditions: mouse plasma protein binding; cited from earlier work
[8] = Parallel artificial membrane permeability assay (PAMPA); assay type: in vitro ADME
[9] = set-up: method as in PMID 26085270; conditions: male Sprague Dawley rat, intravenous at 1 mg/kg; cited from earlier work
[10] = set-up: method as in PMID 26085270; conditions: mouse, iv dose 1 mg/kg; cited from earlier work
[11] = set-up: method as in PMID 26085270; conditions: potentiometric titration, value in parentheses; cited from earlier work
[12] = set-up: method as in PMID 26085270; conditions: pH 7.4; cited from earlier work
Pf (3D7) = assay: Ligand efficiency metrics (LE, LLE, LELP), selectivity and fold changes; set-up: species or system Plasmodium falciparum
[13] = set-up: method as in PMID 26085270; conditions: rat liver microsome; cited from earlier work

## O=C(NCCN1CCCC1)c1cc(-c2ccc(CN3CCCC3=O)cc2)nc2ccc(F)cc12 [Compound 44]
[1]
  MLM Cli: 2.0 mL min^–1 g^–1
[2]
  HLM Cli: 2 mL min^–1 g^–1
[3]
  RLM Cli: 0.6 mL min^–1 g^–1

## O=C(NCCN1CCCC1)c1cc(-c2ccc(CN3CCOCC3)c(F)c2)nc2ccc(F)cc12 [Compound 40]
[1]
  MLM Cli: 1.0 mL min^–1 g^–1
P. berghei ANKA strain
  inhibition in vivo at 1 mg/kg: > 99%
[4]
  pKa: 6.1

## O=C(NCCN1CCCC1)c1cc(-c2ccc(CN3CCOCC3)cc2)nc2ccc(F)cc12 [Compound 2]
[5]
  HLM Cli: ≤1.1 mL min^–1 g^–1
[6]
  MLM Cli: <0.5 mL min^–1 g^–1
[7]
  PPB: 63%
[8]; relative to the earlier lead
  increase in permeability: more than 30 fold
[9]
  Clb: 18 mL min^–1 kg^–1
[10]
  Clb: 12 ^b mL min^–1 kg^–1
[11]
  R^3 group pKa, experimental: 6.8
[12]
  PAMPA Pe: 7.3 ×10⁻⁶ cm/s
P. berghei ANKA strain; 4 × 3 mg/kg oral
  cure: 2/3
P. berghei ANKA strain; 4 × 10 mg/kg oral
  cure: 3/3
P. berghei ANKA strain; 4 × 30 mg/kg oral, 30 mg/kg
  cure: complete cure and 3/3
P. berghei ANKA strain; dosed orally for 4 days
  ED90: 0.1 to 0.3 mg/kg
Pf (3D7)
  LLE (ligand-lipophilicity efficiency): 5.9
Pf (3D7); Pf (3D7), relative to the comparator compound of the sentence
  improvement / increase in potency: 70 fold
[13]
  RLM Cli: ≤0.8 mL min^–1 g^–1

## CC(C)NCC(O)COc1cccc2ccccc12 (stereo not shown) [propanolol, reference compound]
[8]; pH 7.4, read-out: PAMPA Pe
  Papp at 5 h, 10 µM: 15.9 ×10⁻⁶ cm/s

## O=C(NCCN1CCCC1)c1cc(-c2ccc(CN3CCS(=O)(=O)CC3)cc2)nc2ccc(F)cc12 [Compound 43]
[1]
  MLM Cli: <0.5 mL min^–1 g^–1
P. berghei ANKA strain
  inhibition in vivo at 1 mg/kg: > 99%
[3]
  RLM Cli: 0.8 mL min^–1 g^–1
